Several values for one entry are separate records, joined by “and”; a condition that tells them apart may be missing. Equal values may be shown once. Toxic doses and inconclusive results are not listed.
Test system: P388 leukemia ip, CD2F1 mice, survival T/C
Assay: NCI In Vivo Anticancer Drug Screen. Data for tumor model P388 Leukemia (intraperitoneal) in CD2F1 (CDF1) mice
Conditions: endpoint: median survival time, higher = longer survival
Procedure, shortened: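 Mice carrying the transplanted tumor received test compound or vehicle. Survival was recorded in each group, and the value is the treated-group measurement divided by that of the vehicle-treated control group.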

[1] = dose: 50.0 mg/kg/injection, schedule: Q01DX005 (ip), vehicle: saline
[2] = dose: 100.0 mg/kg/injection, schedule: Q01DX005 (ip), vehicle: saline
[3] = dose: 50.0 mg/kg/injection, schedule: Q01DX005 (ip), vehicle: Klucel (hydroxypropylcellulose) (HPC)
[4] = dose: 60.0 mg/kg/injection, schedule: Q01DX005 (ip), vehicle: saline with Tween-80
[5] = dose: 120.0 mg/kg/injection, schedule: Q01DX005 (ip), vehicle: saline with Tween-80
[6] = dose: 15.0 mg/kg/injection, schedule: Q01DX005 (ip), vehicle: saline with Tween-80
[7] = dose: 30.0 mg/kg/injection, schedule: Q01DX005 (ip), vehicle: saline with Tween-80
[8] = dose: 100.0 mg/kg/injection, schedule: Q01DX005 (ip), vehicle: Klucel (hydroxypropylcellulose) (HPC)
[9] = dose: 200.0 mg/kg/injection, schedule: Q01DX005 (ip), vehicle: Klucel (hydroxypropylcellulose) (HPC)
[10] = dose: 200.0 mg/kg/injection, schedule: Q01DX009 (ip), vehicle: saline with Tween-80
[11] = dose: 240.0 mg/kg/injection, schedule: Q01DX005 (ip), vehicle: saline with Tween-80
[12] = dose: 25.0 mg/kg/injection, schedule: Q01DX005 (ip), vehicle: saline with Tween-80
[13] = dose: 100.0 mg/kg/injection, schedule: Q01DX005 (ip), vehicle: saline with Tween-80

For O=C(O)CC1Sc2ccccc2NC1=O (centres undefined), the T/C (dose: 50.0 mg/kg/injection, schedule: Q01DX009 (ip), vehicle: Klucel (hydroxypropylcellulose) (HPC)) was 100 % of control, the T/C (dose: 100.0 mg/kg/injection, schedule: Q01DX009 (ip), vehicle: Klucel (hydroxypropylcellulose) (HPC)) was 108 % of control and the T/C (dose: 200.0 mg/kg/injection, schedule: Q01DX009 (ip), vehicle: Klucel (hydroxypropylcellulose) (HPC)) was 108 % of control. For the same molecule, the T/C (dose: 400.0 mg/kg/injection, schedule: Q01DX009 (ip), vehicle: Klucel (hydroxypropylcellulose) (HPC)) was 100 % of control.

With CCN(CC)CCOC(=O)C(c1ccccc1)C1(O)CCCCC1 (centres undefined) the T/C [1] was 100 % of control and the T/C [2] was 107 % of control.

With CC(C)NCCCNCC(=O)Nc1ccc(S(=O)(=O)c2ccc(NC(=O)CNCCCNC(C)C)cc2)cc1 the T/C (dose: 12.5 mg/kg/injection, schedule: Q01DX005 (ip), vehicle: Klucel (hydroxypropylcellulose) (HPC)) was 104 % of control, the T/C (dose: 25.0 mg/kg/injection, schedule: Q01DX005 (ip), vehicle: Klucel (hydroxypropylcellulose) (HPC)) was 102 % of control and the T/C [3] was 103 % of control.

In the case of CCN(CC)C(=S)C(C)(C)C, the T/C [4] is reported as 106 % of control and the T/C [5] is reported as 106 % of control.

For O=c1ccc2cc3ccoc3c(OCCCCCCBr)c2o1, the T/C (dose: 100.0 mg/kg/injection, schedule: Q04DX002 (ip), vehicle: Klucel (hydroxypropylcellulose) (HPC)) was 91 % of control, the T/C (dose: 200.0 mg/kg/injection, schedule: Q04DX002 (ip), vehicle: Klucel (hydroxypropylcellulose) (HPC)) was 99 % of control and the T/C (dose: 400.0 mg/kg/injection, schedule: Q04DX002 (ip), vehicle: Klucel (hydroxypropylcellulose) (HPC)) was 98 % of control.

For C/C(=N\N1CN(C(C)C(=O)O)P(Nc2ncn[nH]2)N=C1N)c1cccs1 (centres undefined), the T/C (dose: 7.5 mg/kg/injection, schedule: Q01DX005 (ip), vehicle: saline with Tween-80) was 96 % of control, the T/C [6] was 103 % of control and the T/C [7] was 106 % of control.

For CC[C@@]1(O)C(=O)OCc2c1cc1n(c2=O)Cc2cc3cc(OC)ccc3nc2-1, the T/C (dose: 1.57 mg/kg/injection, schedule: Q04DX003 (ip), vehicle: other) was 165 % of control and the T/C (dose: 3.13 mg/kg/injection, schedule: Q04DX003 (ip), vehicle: other) was 98 % of control.

For Cc1nnc(SCC2=C(C(=O)O)N3C(=O)C(NC(=O)Cn4cc(Cl)c(=O)c(Cl)c4)C3SC2)s1 (centres undefined), the T/C (dose: 50.0 mg/kg/injection, schedule: Q01DX009 (ip), vehicle: water) was 105 % of control, the T/C (dose: 100.0 mg/kg/injection, schedule: Q01DX009 (ip), vehicle: water) was 101 % of control and the T/C (dose: 200.0 mg/kg/injection, schedule: Q01DX009 (ip), vehicle: water) was 100 % of control.

In the case of CCN1COc2ccc3ccc4c(c3c2C1)CN(CC)CO4, the T/C [3] is reported as 101 % of control, the T/C [8] is reported as 101 % of control and the T/C [9] is reported as 102 % of control.

For Cc1cc(C)cc(OC(=O)/C=C/C(=O)Oc2cc(C)cc(C)c2)c1, the T/C (dose: 100.0 mg/kg/injection, schedule: Q01DX009 (ip), vehicle: saline with Tween-80) was 90 % of control, the T/C [10] was 90 % of control and the T/C (dose: 400.0 mg/kg/injection, schedule: Q01DX009 (ip), vehicle: saline with Tween-80) was 90 % of control.

For CCC1CN1P(=O)(N(CC)CC)N1CC1CC (centres undefined), the T/C (dose: 50.0 mg/kg/injection, schedule: Q01DX009 (ip), vehicle: saline) was 109 % of control and the T/C (dose: 100.0 mg/kg/injection, schedule: Q01DX009 (ip), vehicle: saline) was 170 % of control.

With C/C=C/C=C\C(=O)O the T/C (dose: 6.25 mg/kg/injection, schedule: Q01DX009 (ip), vehicle: saline) was 102 % of control, the T/C (dose: 12.5 mg/kg/injection, schedule: Q01DX009 (ip), vehicle: saline) was 93 % of control and the T/C (dose: 25.0 mg/kg/injection, schedule: Q01DX009 (ip), vehicle: saline) was 93 % of control. For the same molecule, the T/C [10] was 104 % of control.

With CCCCCCCCSCc1ccc(Nc2ccc(Nc3ccc(CSCCCCCCCC)cc3)cc2)cc1 the T/C (dose: 50.0 mg/kg/injection, schedule: Q01DX006 (ip), vehicle: other) was 102 % of control, the T/C (dose: 50.0 mg/kg/injection, schedule: Q01DX009 (ip), vehicle: acetone) was 101 % of control and the T/C (dose: 100.0 mg/kg/injection, schedule: Q01DX006 (ip), vehicle: other) was 116 % of control. The T/C (dose: 100.0 mg/kg/injection, schedule: Q01DX009 (ip), vehicle: acetone) was 107 % of control and the T/C (dose: 200.0 mg/kg/injection, schedule: Q01DX006 (ip), vehicle: other) was 117 % of control.

For O=[N+]([O-])c1ccc(/C=N/NC(=S)NC23CC4CC(CC(C4)C2)C3)o1, the T/C [3] was 92 % of control, the T/C [8] was 103 % of control and the T/C [9] was 94 % of control.

CCOC(=O)COc1cc2c(cc1C(C)c1ccc(OCC)cc1)OCO2 (centres undefined) was tested, and the T/C [3] was 93 % of control, the T/C [8] was 93 % of control and the T/C [9] was 88 % of control.

For Cc1cc[n+](-c2nc3c([O-])n(C)c(=O)n(C)c-3n2)cc1, the T/C (dose: 100.0 mg/kg/injection, schedule: Q04DX003 (ip), vehicle: saline) was 99 % of control, the T/C (dose: 200.0 mg/kg/injection, schedule: Q04DX003 (ip), vehicle: saline) was 99 % of control and the T/C (dose: 400.0 mg/kg/injection, schedule: Q04DX003 (ip), vehicle: saline) was 94 % of control.

For C=C(CCS(=O)c1ccccc1)CC(CC(=C)COC(C)=O)S(=O)(=O)c1ccccc1 (centres undefined), the T/C (dose: 60.0 mg/kg/injection, schedule: Q01DX005 (ip), vehicle: Klucel (hydroxypropylcellulose) (HPC)) was 99 % of control, the T/C (dose: 120.0 mg/kg/injection, schedule: Q01DX005 (ip), vehicle: Klucel (hydroxypropylcellulose) (HPC)) was 99 % of control and the T/C (dose: 240.0 mg/kg/injection, schedule: Q01DX005 (ip), vehicle: Klucel (hydroxypropylcellulose) (HPC)) was 98 % of control.

N#Cc1nnn2c1nc(N)c1c(Cl)cccc12 was tested, and the T/C [4] was 98 % of control, the T/C [5] was 100 % of control and the T/C [11] was 100 % of control.

With O=C1CNC(=O)C12C(=O)CNC2=O the T/C (dose: 100.0 mg/kg/injection, schedule: Q04DX002 (ip), vehicle: saline with Tween-80) was 98 % of control, the T/C (dose: 200.0 mg/kg/injection, schedule: Q04DX002 (ip), vehicle: saline with Tween-80) was 96 % of control and the T/C (dose: 400.0 mg/kg/injection, schedule: Q04DX002 (ip), vehicle: saline with Tween-80) was 98 % of control.

CNC(=O)OCc1c(COC(=O)NC)c(-c2ccccc2)n(-c2ccccc2)c1C was tested, and the T/C (dose: 12.5 mg/kg/injection, schedule: Q01DX005 (ip), vehicle: saline with Tween-80) was 150 % of control, the T/C [12] was 169 % of control and the T/C (dose: 50.0 mg/kg/injection, schedule: Q01DX005 (ip), vehicle: saline with Tween-80) was 157 % of control and 176 % of control. For the same molecule, the T/C [13] was 118 % of control.

With C=CC1=NC(C)(C)CC(C)O1 (centres undefined) the T/C (dose: 1.56 mg/kg/injection, schedule: Q01DX009 (ip), vehicle: water) was 104 % of control, the T/C (dose: 3.13 mg/kg/injection, schedule: Q01DX009 (ip), vehicle: water) was 107 % of control and the T/C (dose: 6.25 mg/kg/injection, schedule: Q01DX009 (ip), vehicle: water) was 116 % of control. For the same molecule, the T/C (dose: 12.5 mg/kg/injection, schedule: Q01DX009 (ip), vehicle: water) was 109 % of control.

In the case of COc1ccc(-c2cc3ccccc3c(=O)n2Cc2ccccc2)cc1, the T/C [4] is reported as 100 % of control, the T/C [5] is reported as 103 % of control and the T/C [11] is reported as 94 % of control.

With COC(C#N)c1ccccc1 (centres undefined) the T/C (dose: 6.25 mg/kg/injection, schedule: Q04DX003 (ip), vehicle: saline with Tween-80) was 100 % of control, the T/C (dose: 12.5 mg/kg/injection, schedule: Q04DX003 (ip), vehicle: saline with Tween-80) was 100 % of control and the T/C (dose: 25.0 mg/kg/injection, schedule: Q04DX003 (ip), vehicle: saline with Tween-80) was 108 % of control and 115 % of control and 91 % of control. For the same molecule, the T/C (dose: 25.0 mg/kg/injection, schedule: Q04DX003 (ip), vehicle: saline) was 98 % of control.

Cc1ccc(C(=O)c2ccc[n+](C)c2)cc1 was tested, and the T/C [1] was 100 % of control and the T/C [2] was 101 % of control.

For CCCCCCCCSC(=O)n1cc(F)c(=O)[nH]c1=O, the T/C [6] was 103 % of control, the T/C [7] was 120 % of control and the T/C [4] was 120 % of control.

O=C(Nc1ccc(Cl)cc1)SC1=NCC(=O)N1c1ccccc1 was tested, and the T/C (dose: 0.78 mg/kg/injection, schedule: Q01DX005 (ip), vehicle: saline with Tween-80) was 101 % of control, the T/C (dose: 1.56 mg/kg/injection, schedule: Q01DX005 (ip), vehicle: saline with Tween-80) was 102 % of control and the T/C (dose: 3.13 mg/kg/injection, schedule: Q01DX005 (ip), vehicle: saline with Tween-80) was 98 % of control and 94 % of control. For the same molecule, the T/C (dose: 6.25 mg/kg/injection, schedule: Q01DX005 (ip), vehicle: saline with Tween-80) was 94 % of control, the T/C [12] was 89 % of control and the T/C [13] was 88 % of control. The T/C (dose: 200.0 mg/kg/injection, schedule: Q01DX005 (ip), vehicle: saline with Tween-80) was 92 % of control.
